{"source": "patent US10953004B2", "about": "“Combination therapy for proliferative diseases” (Avexxin AS, priority 2016, dated 2021)", "test_system": "MDA-MB-468 cell line", "assay": "Resazurin viability assay", "assay_type": "cell-based, human", "details": "MDA-MB-468 cells", "experimental": "Cell Culture. The MDA-MB-468 cell line was from ATCC. This cell line was established from a pleural effusion of patient with metastatic breast adenocarcinoma. The cells were maintained in RPMI medium supplemented with 10% (v/v) FBS, 0.3 mg/mL L-glutamine, and 0.1 mg/mL gentamicin at 37° C. in 5% CO2. Sub-culture using trypsin-EDTA was performed every 3-4 days with a split ratio of 1:3-1:6 to ensure actively proliferating cells. Resazurin Viability Assay. Cells were seeded in fully supplemented medium at a density of 7 000 cells per well in 96 well plates. After 24 hrs of cultivation, when the cells were 60% confluent, the medium was replaced with serum free medium to ensure synchronization of the cells and to increase cell sensitivity to treatment. Following 16 hrs of serum starvation, the medium was replaced with fresh serum free medium with or without Compound […], Norway), and NVP-BEZ235 (Cayman Chemicals, US) or solvent (DMSO, Sigma Aldrich, US). The cells were observed under the microscope to evaluate possible morphology changes and signs of stress before the addition of resazurin according to the manufacturers instructions (RnD Systems, UK). Resazurin was metabolized for 2 hrs (37° C., 5% CO2) before fluorescence was read at 544 nm excitation and 590 nm emission wavelengths (BioTek Synergy HT)."}
{"smiles": "Cn1c(=O)n(-c2ccc(C(C)(C)C#N)cc2)c2c3cc(-c4cnc5ccccc5c4)ccc3ncc21", "note": "[BEZ235]", "values": [{"measurement": "cytotoxicity at 5 µM", "setting": "Homo sapiens, serum free medium, 5 μM of each inhibitor, 24 hrs of treatment, read-out: reduction of viability", "value": "~30", "unit": "%"}, {"measurement": "toxicity to the cells, each inhibitor alone (initial experiments)", "setting": "25-100 μM, results not shown", "value": "toxic"}, {"measurement": "signs of cellular stress or cytotoxicity, each inhibitor alone (initial experiments)", "setting": "doses 1-5 μM, results not shown", "value": "little or no signs of cellular stress of cytotoxicity"}]}
